For one test, the system named is PWR-1E cells. The test is described as follows: MTT cell proliferation assay, 7 d, PWR-1E. It counts as cell-based. The conditions noted are these: Homo sapiens, 168 h, immortalized untransformed prostate cells, 7 d treatment. The source says:
(§1) Androgen-dependent (LNCaP), androgen-independent (PC-3) and castration resistant (C4-2B and 22Rv1) human prostate carcinoma cells were procured from American Type Culture Collection, Manassas, VA, USA and maintained in RPMI 1640 media (Gibco-Life Technologies, Grand Island, NY, USA) supplemented with 10% fetal bovine serum and 1% penicillin/streptomycin. […] Immortalized untransformed prostate epithelial cells, PWR1E from American Type Culture Collection were maintained in serum-free Keratinocyte media (Gibco) supplemented with epidermal growth factor and bovine pituitary extract. All cell lines were maintained in a 37 °C/5% CO2 humidified atmosphere.
(§2) Cell proliferation assay was performed as described previously. For cell growth experiment, cells were treated with the NRs for 7 days. MTT assay was performed at the end of the experiment. Calculations of combination indices were done using the Calcusyn program (Biosoft, Cambridge, United Kingdom). For colony formation assay, cells were plated 1000 per well in complete media and allowed to adhere for 24 h. The next day cells were treated with indicated compounds (5 μM). After 24 h compound containing media were removed, and cells were allowed to form colonies in complete media. Approximately 2 weeks later the colonies were fixed, stained with 0.5% crystal violet (sigma) for 30 min and counted manually. Results represent the mean ± standard deviation of three independent experiments.

In another test the test system is C4-2B cells. As to the kind of experiment: MTT cell proliferation assay, 7 d, C4-2B. It counts as cell-based. The settings on record: Homo sapiens, 168 h, 7 d treatment.
From the text: as §1, §2
In general terms: Formazan colour is commonly taken as a measure of viable cells.

A further test deals with LNCaP cells. The test is described as follows: MTT cell proliferation assay, 7 d, LNCaP. It counts as cell-based, human. The settings on record: Homo sapiens, LNCaP, 168 h, 7 d treatment.
From the text: as §1, §2

Test [1] relates to PC-3 cells. The test is described as follows: MTT cell proliferation assay, 7 d, PC-3. It counts as cell-based. The conditions noted are these: Homo sapiens, PC-3, 168 h, 7 d treatment.
From the text: as §1, §2

A further test has as its system 22Rv1 cells. The test is described as follows: MTT cell proliferation assay, 7 d, 22Rv1. It counts as cell-based. The conditions noted are these: Homo sapiens, 22Rv1, 168 h, 7 d treatment.
From the text: as §1, §2

The subject of a further test is MR49F cells. As to the kind of experiment: MTT growth inhibition in Enzalutamide resistant MR49F cells. It counts as cell-based, human. The conditions noted are these: for GI50: Homo sapiens, MR49F. The method, then:
Figure 2 Effect of NRs on PCa cell growth and colony formation (A) Representative photographs of colonies formed in PCa cells at 14th day after initial treatment with specified compounds (5 μmol/L). Colonies were fixed with methanol and stained with crystal violet. (B) Data represents the mean ± S.E from three independent experiments. *, P< 0.05; ♣, P<0.01 compared to vehicle treated control. […] NRs that had promising inhibitory effect on cell proliferation on LNCaP cells were tested for their growth inhibitory effect in MR49F cells in comparison with Casodex and Abiraterone acetate by MTT assay.
as §1, §2

In a further test the test system is PCa cells. As to the kind of experiment: MTT cell viability in PCa cells (LNCaP, PC-3, C4-2B, 22Rv1). The conditions noted are these: for GI50: Homo sapiens, range over PCa cell lines; for growth inhibitory effect or differential sensitivity: PCa cells vs untransformed cells. It counts as cell-based, human. Here is the method:
as §2

Test [2] deals with PC-3 cells. The test is described as follows: Boyden chamber matrigel invasion assay. It counts as cell-based, human. The conditions noted are these: PC-3, 5 μM, 24 h. Here is the method: Figure 5 Anti-migratory and anti-invasive potential of NRs (A) Effect of NRs treatment (5 μmol/L) on PC-3 cell migration was assessed by wound healing assay after 24 h of wound formation. Representative photomicrographs of initial and final wounds are shown at 100x magnification. (B) Effect of NRs on PC-3 cell invasion was evaluated by transwell migration assay. PC-3 cells were seeded on matrigel coated boyden chamber and treated with NRs (5 μmol/L, 24 h). Photographs represent the extent of cell invasion in each of the treated cells. (C) Western blot analysis of the effect of NRs on the expression of cadherins in PC-3 cells. Cells were treated with indicated compound 20 μmol/L for 24 h.
The invasion assay in PC-3 cells was performed using Matrigel (BD Biosciences, Bedford, MA, USA)-coated transwell cell culture chambers (8 μm pore size, EMD Millipore, Temecula, CA, USA) as described previously (43). Briefly, PC-3 cells (5 × 10^4 cells/well) were cultured in the upper chamber of the transwell insert for 24 h in serum-free RPMI-1640 medium. The cells were then treated with 5 μM of indicated compounds for 24 h. RPMI-1640 medium containing 10% FBS was placed in the lower chamber. At the end of incubation, the top surface of the non-migrated cells were scraped gently with cotton swabs and the cells on the lower surface of the membrane (migrated cells) were fixed for 15 min with cold methanol and stained with crystal violet. Cells that had migrated to the bottom of the membrane were visualized and counted using an inverted microscope. For each replicate (n = 3), cells in three randomly selected fields were counted and averaged.

In test [3] the test system is PC-3 cells. As to the kind of experiment: Wound healing migration assay. It counts as cell-based, human. The conditions noted are these: 5 μM, 24 h. Here is the method:
Figure 5 Anti-migratory and anti-invasive potential of NRs (A) Effect of NRs treatment (5 μmol/L) on PC-3 cell migration was assessed by wound healing assay after 24 h of wound formation. Representative photomicrographs of initial and final wounds are shown at 100x magnification. (B) Effect of NRs on PC-3 cell invasion was evaluated by transwell migration assay. PC-3 cells were seeded on matrigel coated boyden chamber and treated with NRs (5 μmol/L, 24 h). Photographs represent the extent of cell invasion in each of the treated cells. (C) Western blot analysis of the effect of NRs on the expression of cadherins in PC-3 cells. Cells were treated with indicated compound 20 μmol/L for 24 h. […] For wound healing assay highly metastatic PC-3 cells were plated in a 24 well plate at a seeding density of 5 × 10^5 cells/ well and allowed to form a confluent monolayer for 24 h. Cells were made dormant by pretreating with 0.5 μmol/L mitomycin C for 2 h to ensure that wounds are filled due to cell migration and not by cell proliferation. Subsequently, the monolayer was scratched with a pipette tip, washed with media to remove floating cells, and photographed (time 0 h). Cells were then treated with indicated compounds (5 μM) and the experiment was terminated as soon as wound was completely filled in vehicle treated controls. Cells were then photographed again using Nikon TE2000 microscope at three randomly selected sites per well [43].

[4] abbreviates: DHT induced, read-out: GI50 LNCaP, DHT induced.
The mark [5] stands for this setting: read-out: GI50 MR49F (Figure 2C).

The results in this text go back to article PMC4413647, “Simultaneous targeting of androgen receptor (AR) and MAPK-interacting kinases (MNKs) by novel retinamides inhibits growth of human prostate cancer cell lines” (Oncotarget, 2014).

Where two headings read alike, the source gives them in different places.

In general, GI50 refers to the concentration that inhibits growth by half. As to `CC(=O)O[C@H]1CC[C@@]2(C)C(=CC[C@@H]3[C@@H]2CC[C@]2(C)C(c4cccnc4)=CC[C@@H]32)C1` [AA, Abiraterone acetate, reference compound], the 50% growth inhibitory concentration (GI50) in the test with PWR-1E cells amounted to 20.2 µM; in the test with C4-2B cells it was 1.47 µM; with LNCaP cells (read-out: GI50 LNCaP), 2.45 µM; with LNCaP cells (setting [4]), 2.69 µM; in the test with PC-3 cells [1] it was 7.62 µM; with 22Rv1 cells, 2.97 µM. In addition, the GI50 in the test with MR49F cells (read-out: GI50 MR49F) is 27.5 µM.
As for `CC1=C(/C=C/C(C)=C/C=C/C(C)=C/C(=O)O)C(C)(C)CCC1` [ATRA, all-trans-retinoic acid, reference compound], the GI50 in the test on PWR-1E cells was 75.3 µM; with C4-2B cells, 11.7 µM; in the test with LNCaP cells (read-out: GI50 LNCaP), 47.9 µM; with LNCaP cells (setting [4]), 39.8 µM; with PC-3 cells [1], 36.3 µM; with 22Rv1 cells it was 25.1 µM.
As to `CC(O)(CS(=O)(=O)c1ccc(F)cc1)C(=O)Nc1ccc(C#N)c(C(F)(F)F)c1` (stereo not drawn) [Casodex, reference compound], the concentration for 50% growth inhibition (GI50) with PWR-1E cells was 69.1 µM; in the test on C4-2B cells, 1.51 µM; in the test with LNCaP cells (read-out: GI50 LNCaP), 2.61 µM; in the test on LNCaP cells (setting [4]), 2.95 µM; in the test with PC-3 cells [1], 9.15 µM; in the test on 22Rv1 cells it was 3.81 µM. For the same compound, in the test with MR49F cells (read-out: GI50 MR49F), the GI50 stood at 43.6 µM.
As to `CC1=C(/C=C/C(C)=C/C=C/C(C)=C/C(=O)Nc2ccc(O)cc2)C(C)(C)CCC1` [Compound 4-HPR, 4-hydroxyphenyl retinamide, reference compound], the GI50 came out at 1.07 µM in the test with PWR-1E cells; 3.11 µM in the test on C4-2B cells; 2.69 µM in the test on LNCaP cells (read-out: GI50 LNCaP); 2.45 µM in the test with LNCaP cells (setting [4]); 3.54 µM in the test with PC-3 cells [1]; 3.23 µM in the test on 22Rv1 cells.
`CNC(=O)c1ccc(N2C(=S)N(c3ccc(C#N)c(C(F)(F)F)c3)C(=O)C2(C)C)cc1F` [MDV3100, Enzalutamide, reference compound]: the values for the GI50 in the test on PWR-1E cells, with C4-2B cells and in the test on MR49F cells (setting [5]) were 17 µM, 1.54 µM and more than 100 µM, respectively. In the test with MR49F cells (up to a concentration of 100 μmol/L), the “effect on growth of MR49F cells” value was “no significant effect”.
On to `CC1=C(/C=C/C(C)=C/C=C/C(C)=C/C(=O)O)C(C)(C)CCC1n1ccnc1` (stereo not drawn) [VN/14-1], for which the concentration for 50% growth inhibition (GI50) was 69.2 µM in the test with PWR-1E cells; 9.76 µM in the test on C4-2B cells; 11.3 µM in the test on LNCaP cells (read-out: GI50 LNCaP); 12.9 µM in the test on LNCaP cells (setting [4]); 36.3 µM in the test on PC-3 cells [1]; 12.9 µM in the test on 22Rv1 cells.
For `CC1=C(/C=C/C(C)=C/C=C/C(C)=C/C(=O)Nc2ccc(O)cc2)C(C)(C)CCC1n1ccnc1` (stereo not drawn) [VN/66-1], the GI50 in the test with PWR-1E cells is 19.1 µM; in the test on C4-2B cells, 2.38 µM; in the test with LNCaP cells (read-out: GI50 LNCaP) it was 4.67 µM; with LNCaP cells (setting [4]), 1.54 µM; in the test with PC-3 cells [1] it was 10.7 µM; with 22Rv1 cells, 2.95 µM. For the same compound, the GI50 with MR49F cells (setting [5]) came out at 6.76 µM.
As to `CC1=C(/C=C/C(C)=C/C=C/C(C)=C/C(=O)NC(C)(C)C)C(C)(C)CCC1n1ccnc1` (stereo not drawn) [VNLG-145], the GI50 is 25.1 µM with PWR-1E cells; 2.14 µM in the test with C4-2B cells; 2.45 µM with LNCaP cells (read-out: GI50 LNCaP); 2.23 µM in the test on LNCaP cells (setting [4]); 1.5 to 5.5 µM in the test with PCa cells; 4.26 µM with PC-3 cells [1]. In addition, the GI50 in the test on 22Rv1 cells was found to be 2.23 µM; in the test with MR49F cells (setting [5]) it was 3.89 µM.
Turning to `CC1=C(/C=C/C(C)=C/C=C/C(C)=C/C(=O)Nc2cc(C(F)(F)F)ccc2C(F)(F)F)C(C)(C)CCC1n1ccnc1` (stereo not drawn) [VNLG-146], the GI50 in the test with PWR-1E cells amounted to 63.1 µM; in the test on C4-2B cells, 11.7 µM; in the test on LNCaP cells (read-out: GI50 LNCaP), 57.5 µM; in the test with LNCaP cells (setting [4]), 52.5 µM; in the test on PC-3 cells [1], 57.5 µM; with 22Rv1 cells it was 39.8 µM. The “growth inhibitory effect or differential sensitivity” value in the test on PCa cells is “did not display any notable growth inhibitory effect or differential sensitivity”.
Take `CC1=C(/C=C/C(C)=C/C=C/C(C)=C/C(=O)Nc2ncnc3[nH]cnc23)C(C)(C)CCC1n1ccnc1` (stereo not drawn) [VNLG-148]: the GI50 in the test with PWR-1E cells is 43.6 µM; in the test with C4-2B cells it was 15.5 µM; in the test with LNCaP cells (read-out: GI50 LNCaP), 22.9 µM; with LNCaP cells (setting [4]), 19.1 µM; with PC-3 cells [1] it was 36.3 µM; in the test with 22Rv1 cells, 39.8 µM. The “growth inhibitory effect or differential sensitivity” value with PCa cells was “did not display any notable growth inhibitory effect or differential sensitivity”.
In the case of `CC1=C(/C=C/C(C)=C/C=C/C(C)=C/C(=O)Nc2ccccc2)C(C)(C)CCC1n1ccnc1` (stereo not drawn) [VNLG-153], the GI50 in the test on PWR-1E cells is 39.8 µM; in the test with C4-2B cells, 2.97 µM; in the test with LNCaP cells (read-out: GI50 LNCaP) it was 3.23 µM; in the test with LNCaP cells (setting [4]), 2.69 µM; in the test on PCa cells, 1.5 to 5.5 µM; in the test with PC-3 cells [1], 4.36 µM. For the same compound, the GI50 was determined as 2.23 µM in the test on 22Rv1 cells and 7.41 µM in the test on MR49F cells (setting [5]). The “percentage of cell invasion compared to control” value with PC-3 cells [2] is 35. Besides, in the test with PC-3 cells [3], the “PC-3 cell migration to the denuded zone” value is “potentially suppressed”.
